For series [1] the following is noted: Analytical Profiles of Drug Substances Volume 13, p 425; cited from earlier work.
Series [2] in a line: Saturated solubility of topiramate in de-ionized water and aqueous surfactant solutions at 37° C. In kind it is physicochemical. The note with it: Lutrol F127, F87, F108, F68 and Myrj 52 solutions at 1, 5, 15 weight percent, FIG. 6. On the procedure: Aqueous solubility is determined by adding the therapeutic agent to stirred or agitated water maintained in a constant temperature bath at a temperature of 37 degrees centigrade until equilibrium is established between the dissolved and undissolved states and the concentration of dissolved drug is constant. The resulting solution saturated with active agent is then filtered, typically under pressure through a 0.8-micron Millipore filter, and the concentration in solution is measured by any appropriate analytical method including gravimetric, ultraviolet spectrophotometry, refractive index, refractive index chromatography, and the like.
The present invention involves a method to match the appropriate solid surfactant or blend of surfactants with a particular pharmaceutical active agent to produce the solubilizing core, or S-Core of the present invention. […] Then, pharmaceutical agent is added in excess to the surfactant solutions and the saturated solubility of the pharmaceutical active agent is then measured by an appropriate analytical method such as ultraviolet spectroscopy, chromatographic methods, or gravimetric analysis. […]
The aqueous surfactant solutions were then equilibrated to constant temperature in a 37° C. water bath. […] The resulting saturated solutions of drug were filtered through 0.8-micron filters and analyzed for drug concentration by refractive index chromatography. […]

For the compound `O=C1NC(=O)C(c2ccccc2)(c2ccccc2)N1` [phenytoin], in series [1], the Solubility of phenytoin is 20 µg/mL.

With `CC1(C)O[C@@H]2[C@@H](CO[C@@]3(COS(N)(=O)=O)OC(C)(C)O[C@@H]23)O1` [topiramate], the “Topiramate solubility in water in the presence of surfactant compared to control” value in series [2] was “increased”.

The record behind these values is patent US20050169992A1, “Methods and dosage forms for increasing solubility of drug compositions for controlled delivery” (priority 2003, published 2005).
